Measured values reported in patent publication US11613531B2, “Inhibitors of RHO associated coiled-coil containing protein kinase” (Kadmon Corporation, LLC, priority 2017, dated 2023).

How the values were obtained:
[1] = target: Recombinant ROCK1 (amino acids 1-535) (Homo sapiens (Human), UniProt Q13464); assay: Z′-Lyte kinase assay, ROCK1; assay type: biochemical; settings: 9 points 2-fold serial dilution
How it was run: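 Recombinant human ROCK1 (aa 1-535) or ROCK2 (aa 1-552) activity read by Z′-Lyte kinase assay. Percent inhibition at 1 μM compound was normalized to DMSO control; IC50 from 9-point 2-fold serial dilutions by nonlinear regression.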

[2] = system: Histamine-induced vascular permeability in mice; assay: Histamine-induced vascular permeability model; assay type: in vivo; settings: single oral dose 1 hr. prior to histamine injection
From the text: FIG. 12a. ROCK inhibition stabilizes the endothelial barrier function in a histamine-induced vascular permeability model in mice. Representative images of Evan's Blue dye extravasation induced by histamine in the skin of ROCK inhibitor and vehicle treated mice, relative to the control compound (salbutamol). ROCK inhibitor induces vascular barrier stabilization following single dose of compound administered 1 hr. prior to histamine injection.
FIG. 12b. Quantitation of the decrease in spot area size and Evan's Blue dye amount in the skin of ROCK inhibitor treated mice following the induction of capillary leakage by histamine injection.
Histamine-Induced Vascular Permeability Model in Mice […]
20 minutes post challenge with histamine, animals were euthanized. The skin was then inverted, the lesion diameters were measured. The area of the lesion was calculated and expressed in square millimeters. Following diameter measurements, Evan's Blue dye was extracted from the skin tissue and the optical density was measured. Data are calculated against a spiked in Evan's Blue standard curve. […]
The extent of compound efficacy was quantitated by calculating both the overall skin spot area and the amount of Evans Blue dye permeating the skin. 20 Minutes post challenge with histamine, animals were euthanized, the lesion diameters were measured. […]

[3] = system: UUO-induced renal fibrosis in mice; assay: Unilateral ureteral obstruction (UUO)-induced renal fibrosis model; assay type: in vivo; settings: oral 3 mg/kg BID, 6 mg/kg BID and 10 mg/kg QD, Day 10, Masson's trichrome
From the text: FIG. 11a. ROCK inhibitor is active in a mouse model of renal fibrosis. Representative images of kidney sections stained with Masson's trichrome to visualize collagen and fibrosis in mice treated with ROCK inhibitor in the ureteral obstruction (UUO) induced renal fibrosis mouse model.
FIG. 11b. Quantitation of the decrease in the interstitial fibrosis index in the histopathological analysis of the images from ROCK inhibitor and vehicle treated mice in the UUO induced renal fibrosis mouse model.
Unilateral Ureteral Obstruction (UUO)-Induced Renal Fibrosis Model in Mice
Male C57B/L6 mice were anesthetized with Isoflurane and placed in dorsal recumbency and the abdominal region was shaved and prepared for surgery with alternating scrub wipes of iodine or chlorhexidine scrub and 70% isopropyl alcohol. […] All animals were monitored closely for 3 days. […]
To assess the activity of ROCK inhibitors in modulation of additional organ fibrosis in an in vivo setting, ROCK inhibitor was tested in a UUO model of renal fibrosis. […] The animals were sacrificed on Day 10 following surgery and the extent of fibrosis was determined by histopathological analysis of fixed kidney sections stained with Masson's trichrome. […]
The improvement in the kidney fibrosis following UUO was quantitated based on the individual image scores by a pathologist blinded to the group assignments. […]

Sequence of Recombinant ROCK1 (amino acids 1-535) (Q13464 1-535): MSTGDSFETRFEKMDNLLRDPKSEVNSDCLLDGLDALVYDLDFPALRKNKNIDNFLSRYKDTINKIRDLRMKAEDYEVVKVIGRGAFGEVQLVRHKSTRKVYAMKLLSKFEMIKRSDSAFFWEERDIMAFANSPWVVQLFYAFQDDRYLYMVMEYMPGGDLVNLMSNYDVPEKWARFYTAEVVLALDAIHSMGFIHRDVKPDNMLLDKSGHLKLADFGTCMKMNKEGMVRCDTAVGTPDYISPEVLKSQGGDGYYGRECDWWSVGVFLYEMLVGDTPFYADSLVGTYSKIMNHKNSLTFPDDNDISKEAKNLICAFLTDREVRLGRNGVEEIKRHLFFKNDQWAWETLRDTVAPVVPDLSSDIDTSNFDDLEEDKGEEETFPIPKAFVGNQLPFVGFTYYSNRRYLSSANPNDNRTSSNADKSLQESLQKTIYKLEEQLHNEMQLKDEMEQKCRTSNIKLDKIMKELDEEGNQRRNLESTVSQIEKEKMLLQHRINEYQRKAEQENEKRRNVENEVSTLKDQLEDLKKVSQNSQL

## Clc1cnc(N2C3CCC2CNC3)nc1Nc1ccc2[nH]ncc2c1 [Example 192, N-(2-(3,8-diazabicyclo[3.2.1]octan-8-yl)-5-chloropyrimidin-4-yl)-1H-indazol-5-amine]
[1]
  IC50: 5 nM
[2]
  vascular permeability induced by histamine (Evan's Blue dye extravasation): blocked
[3]
  amount of interstitial collagen in the obstructed kidney: significantly lower
